# US20250263771A1, “SYSTEM AND METHODS TO MEASURE CELL VIABILITY IN HIGH THROUGHPUT VIA CONTINUOUS GEOMETRY” (priority 2022, published 2025)
# Where two headings read alike, the source gives them in different places.
# Legend:
# E. coli strain BW25113 = experiment: Geometric Viability Assay (GVA) of drug-treated stationary and exponential E. coli cultures; assay type: cell-based, Escherichia coli; settings: for activity in dose response, stationary versus exponential cultures (follow up of Enzo library hits): stationary and exponential cultures; for resistance of stationary phase cells compared with exponentially growing cells: 3 antibiotics, 6 concentrations, 5 durations; for reduction in viability: within an hour; for activity in aerobic versus anaerobic environments: stationary phase cells
# Excerpt: Previous studies have found slow growth is a non-inheritable form of antibiotic tolerance buying time for viable cells to develop genetic resistance. Slow-growing cells commonly have reduced metabolic activity and DNA replication as compared to exponentially growing cells. As a result, slow-growing cells are refractory to antibiotics targeting DNA synthesis (fluoroquinolones), protein translation (aminoglycosides), and cell wall biogenesis (beta-lactams). Growth-dependent tolerance can only be observed by measuring viability but the tedium and cost of the drop CFU assay limits extensive profiling. Using GVA, Applicants directly compared the viability of exponentially growing cells and stationary phase cells to different doses of three antibiotics for varying amounts of time. In total, Applicants tested 3 antibiotics at 6 different concentrations for 5 different durations against stationary and exponential cells, in duplicate, for a total of 360 viability measurements (FIG. 5a,b).
# To explore the GVA technique's potential for high throughput viability measurements, Applicants screened the ICCB Enzo Bioactive library (469 compounds) against stationary and exponentially growing cultures (FIG. 5c,d). […] The viability of BW25113 E. coli treated with the Enzo library was measured in both exponential and stationary phase. Including controls and removing pipette errors, 2267 conditions were measured. […] Mitomycin C is a known antibiotic acting through DNA cross-linking. […] Phentolamine is an α-adrenergic receptor antagonist.
# (§1) For stationary phase treatments, bacterial cells were grown overnight (≥16 hours) in a shaking incubator (180 RPM). For P. putida only, cells were grown for 2 days. Upon entering the stationary phase, cells were distributed into a 96 well flat-bottom plates with 100 μL of cells per well. Drug treatments at 1000× were plated into a separate 96 well-round bottom plate. A 100 nL pin transfer was used to dilute the drug plate into the cell plate at a 1:1000 ratio. This plate was then placed into a shaking incubator for the experimental time. To measure antibiotic treatments in the exponential phase, overnight culture was diluted 1:1000 into fresh LB. This culture was then placed into the incubator for 2 hours. After this incubation, the cells were then distributed to the 96 well plate followed by drug treatment.
# (§2) Embedding for GVA: The goal for embedding was to have a uniformly mixed sample in liquid hydrogel that would quickly solidify the 3D mold. Applicants used 0.5% agarose as a convenient hydrogel that would solidify quickly and prevent cell motility once solidified.
# [1] = tested on: cytoplasmic superoxide (ROS) in E. coli; experiment: Single-cell CellROX fluorescence (ROS levels) over time; assay type: cell-based, Escherichia coli; settings: for effect on ROS (CellROX signal) over time: lethal dose, compared to untreated control
# Protocol: (§3) Microscopy measurements: For all microscopy experiments, cells from overnight cultures were diluted 1:100 in minimal media (PMM) and shaken for 2 hours at 37° C. to ensure cells had exited lag phase. After 2 hours of growth, 2 μL of dilute cell culture was added to the top of a cooled, 200 μL 2% low melt agarose pad with CellROX dye (5 μM). The agarose pad was molded to fit in 96-well square bottom plates (Brooks Automation, MGB096-1-2-LG-L). After 10 minutes of drying, the pad with affixed cells was inverted and pressed into the bottom of an imaging plate. Fields of view (FOV) were selected manually on the microscope. After FOVs were selected and before the imaging started, the drug was added on top as done previously.
# E. coli [2] = settings: DPI and ciprofloxacin, optical density over 8 hours
# Excerpt: FIG. 6A-I: DPI generates ROS, activates the SOS response, and antagonizes ciprofloxacin. a) Median, single-cell CellROX signal as a function of time for DPI (blue), ciprofloxacin (orange), and an untreated control (yellow). b) Efficacy of DPI in aerobic and anaerobic conditions. […] Brightness and contrast is the same for all images. […] The dose response for the wild-type (WT) cells is depicted in green or purple, respectively. Shaded errorbars equal to the standard deviation in logspace between 3 replicates. […] Each square in the heatmap was the mean of duplicate conditions. Colorbar correspond to the log10 (CFUs/mL) for each dose combination. […] Optical density was measured for each condition over 8 hours and the integrated area under the growth curve (AUGC) is depicted (colorbar). i) Dose response curves for temporally staggered combinations. All treatments lasted for 24 hours total. Pretreated conditions were treated for 2 hours with a single drug followed by 22 hours with both drugs.
# To test for antagonism, Applicants measured viability in a time-resolved, checkerboard assay using GVA (FIGS. 6f, 21). In the checkerboard assay, DPI was combined with either ciprofloxacin or gentamicin across a 6×6 dose matrix. The ease of GVA enabled sampling the checkerboard over time, resulting in a complete pharmacokinetic profile of the drug-drug interaction.
# [3] = tested on: promoters of genes downstream of lexA (pol, dinB, dinG, yjiH, lexA)
# Excerpt: (§4) Filamentation is a classic hallmark of SOS activation and increases in ROS are an established SOS activator. Therefore, Applicants wondered if DPI was activating SOS. Applicants examined the promoter activity of genes downstream of lexA using the PEC GFP-promoter library. LexA is a master transcriptional repressor of genes in the SOS regulon such as pol, dinB, dinG, and yjiH, and is auto-catalytically degraded by activated recA.
# (§5) Strains and growth conditions: E. coli strain BW25113 was used unless otherwise noted in the text. This strain was acquired from the Yale Coli Genetic Stock Center. E. coli was grown in LB (Sigma Aldrich) at 37° C. in a shaking incubator. B. subtilis strain W168 was a kind gift from the Garner lab and was grown in LB at 37° C. in a shaking incubator. P. putida strain KT2440 was a kind gift from Jacob Fenster and was grown in LB at 30° C. in a shaking incubator. S. typhimurium strain SL1344 was a kind gift from the Corrie Detweiler and was grown in LB at 37° C. in a shaking incubator. S. cerevisiae strain BY4741 was a kind gift from Roy Parker and was grown in YEPD at 30° C. in a shaking incubator. P. aeruginosa strain PA01 was a kind gift from the Zemer Gitai and was grown in LB at 37° C. in a shaking incubator. Knockouts were selected from the Keio collection (Dharmacon). The PEC promoter library in E. coli was acquired from Dharmacon (PEC3877).
# as §3
# E. coli [4] = settings: 4 hours of treatment, less than 10 μg/mL DPI
# Excerpt: as §4, §3
# S. typhimuirium = settings: DPI crossed with ciprofloxacin or gentamicin
# Protocol: as §5
# [5] = tested on: E. coli, stationary phase and exponential phase; experiment: GVA viability screen of an 80-compound drug library, 96 well format; assay type: cell-based, Escherichia coli; settings: treated for 4 hours, duplicate
# Protocol: FIGS. 27A-B: Screen of compounds that affect viability in exponential and stationary phase using data from a GVA assay in 96 well format drug testing. The antibiotic potential of a drug library (80 compounds) was tested against exponential and stationary phase bacteria in duplicate. (A) Viability reduction of compounds in exponential (top) and stationary (bottom) phase cells. Each x is the mean of 2 biological replicates. (B) Scatter plot of the viability screen comparing exponential and stationary phase activity. Each blue dot represents the mean of 2 replicates of a compound treatment. Red dots represent DMSO controls. The dashed lines represent 3 times the standard deviation of the negative controls. Screen was performed with E. coli with both stationary phase and exponential phase bacterial populations. Both phases were screened in duplicate. 80 compounds and 16 controls were screened. Cells in stationary and exponential phase were treated with the compound for 4 hours, followed by casting into pipet tips using the GVA protocol.
# E. coli knockout mutants = tested on: E. coli knockout mutants
# Protocol: as §5, §1, §2
# stationary phase E. coli = settings: for increase in viability as compared to either drug alone: 24 hours treatment
# Protocol: as §1, §2
# [6] = 24 hours total, 2 hours single drug then 22 hours both drugs
compound,measurement,setting,value
NC(=Nc1ccccc1)NC(=O)c1nc(Cl)c(N)nc1N [phenamil],"activity in dose response, stationary versus exponential cultures (follow up of Enzo library hits)",E. coli strain BW25113,did not have any dose-dependent effect on viability
O=C(O)c1cn(C2CC2)c2cc(N3CCNCC3)c(F)cc2c1=O [ciprofloxacin],effect on ROS (CellROX signal) over time,[1],monotonically increasing levels of ROS
same,pharmacodynamic profile,"E. coli strain BW25113; 10 μg/mL, initial killing within an hour, stable through 6 hours, second phase by 24 hours",biphasic pharmacodynamic profile
same,resistance of stationary phase cells compared with exponentially growing cells,E. coli strain BW25113; GVA,more resistant
same,reduction in viability,"E. coli strain BW25113; exponentially growing cultures, 10 μg/mL",10 fold
same,reduction in viability,"E. coli strain BW25113; stationary cultures, 10 μg/mL",10 fold
same,activity in aerobic versus anaerobic environments,E. coli strain BW25113; 24 hours,less active in anaerobic cultures
Cc1cccc(CCN2CCC(C(=O)c3ccc(NS(C)(=O)=O)cc3)CC2)n1 [E-4031],"activity in dose response, stationary versus exponential cultures (follow up of Enzo library hits)",E. coli strain BW25113,did not have any dose-dependent effect on viability
Cc1ccc(N(CC2=NCCN2)c2cccc(O)c2)cc1 [phentolamine],sensitivity of stationary versus exponentially growing cells,E. coli strain BW25113; high concentrations (20 μg/mL),stationary cells were more sensitive
"c1ccc2c(c1)[I+]c1ccccc1-2 [DPI, diphenyleneiodonium]",antagonism in growth inhibition assay,E. coli [2],not observed
same,"dinB, dinG, and yjiH promoter activity",[3],DPI-dependent increase
same,pol promoter activity,[3]; compared to a ribosomal protein control (rrnB),"persistent, dose-dependent induction"
same,time to increased lexA promoter activity after DPI addition,[3]; lexA promoter,≤ 90 min
same,dose giving the highest promoter activity,"[3]; pol promoter, dose where filamentation was observed",3 µg/mL
same,ROS after the initial decrease,[1]; lethal DPI dose,rapid spike in ROS
same,time to ROS nadir after the drug was added,[1]; lethal DPI dose,around 75 minutes
same,effect on ROS (CellROX signal) over time,[1],substantially decreased ROS
same,cell morphology,E. coli [4],formation of bacterial filaments
same,antagonism of ciprofloxacin and gentamicin,S. typhimuirium,also observed
same,activity in viability screen,[5],bactericidal activity
same,"potency in knockouts of other DNA repair enzymes, redox repair enzymes, or ROS scavengers",E. coli knockout mutants; either growth phase,did not substantially change the potency
same,susceptibility of recA knockouts,"E. coli knockout mutants; recA knockout, stationary and exponential phases",more susceptible to DPI
same,potency in yedZ and fre knockouts,E. coli knockout mutants; stationary cells,modestly increased the potency
same,effect of 2 hours DPI pretreatment before adding ciprofloxacin,stationary phase E. coli; [6],further increased protection
same,effect of 2 hours ciprofloxacin pretreatment before DPI,stationary phase E. coli; [6],reduced DPI's antagonistic effects
same,increase in viability as compared to either drug alone,stationary phase E. coli; DPI combined with ciprofloxacin,"1,000 fold"
same,increase in viability as compared to either drug alone,stationary phase E. coli; DPI combined with gentamicin,"1,000 fold"
same,"activity in dose response, stationary versus exponential cultures (follow up of Enzo library hits)",E. coli strain BW25113,active against both stationary and growing cultures
same,efficacy on adding a ROS scavenger (ascorbic acid),E. coli strain BW25113; increasing concentrations of ascorbic acid,reduced DPI efficacy
same,viability at intermediate concentrations,"E. coli strain BW25113; intermediate DPI concentrations, GVA",maintained viability
same,activity in aerobic versus anaerobic environments,E. coli strain BW25113; 24 hours,less active in anaerobic cultures
CO[C@@]12[C@H](COC(N)=O)C3=C(C(=O)C(C)=C(N)C3=O)N1C[C@@H]1N[C@@H]12 [mitomycin C],activity in viability screen,[5],bactericidal activity
same,"activity in dose response, stationary versus exponential cultures (follow up of Enzo library hits)",E. coli strain BW25113,more active against exponentially growing cells compared to cells in stationary phase
gentamicin,resistance of stationary phase cells compared with exponentially growing cells,E. coli strain BW25113; GVA,more resistant
same,activity in aerobic versus anaerobic environments,E. coli strain BW25113; 24 hours,less active in anaerobic cultures
same,reduction in stationary phase cell viability,"E. coli strain BW25113; stationary phase, 10 μg/mL, full 24 hours",> 10 fold
CC1(C)S[C@@H]2[C@H](NC(=O)C(C(=O)O)c3ccccc3)C(=O)N2[C@H]1C(=O)O (some centres unmarked) [carbenicillin],resistance of stationary phase cells compared with exponentially growing cells,E. coli strain BW25113; GVA,more resistant
same,change in viable cells,"E. coli strain BW25113; exponential cells, 10 μg/mL, after 24 hours treatment",increase in viable cells
same,change in number of colonies,"E. coli strain BW25113; exponential cells, 10 μg/mL, first 6 hours",no change in the number of colonies
same,decrease in viability,"E. coli strain BW25113; exponential cells, 100 μg/mL, 24 hours","10,000 fold"
same,decline in viability,"E. coli strain BW25113; stationary cells, 100 μg/mL, 24 hours",< 10 fold
